Literature values as cited in patent US7799357B2, “In vitro resveratrol-rich callus tissues derived from Vitis thunbergii Sieb. et Zucc and method for producing the same” (Tatung Company, priority 2007, dated 2010).

System: Nothobranchius furzeri
Details: short-lived fish Nothobranchius furzeri

Question: Which results are given for `Oc1ccc(/C=C/c2cc(O)cc(O)c2)cc1` [Resveratrol, 3,5,4′-trihydroxystilbene]?
Answer: extension of maximum lifespan (maximum lifespan): 59%; extension of median lifespan (median lifespan): 56%
